Measurements: US20070004633A1, “Use of peptidic conjugates for preparing compositions for alopecia preventive and curative treatment” (priority 2003, published 2007)
Lipoyl = N-lipoyl

System: anagen-phase hair follicles of mouse vibrissae
Assay: Growth of mouse vibrissae in vitro (anagen-phase hair follicle culture, technique of Philpott)
Format: cell-based
Set-up: unit not given here
Conditions: peptide 10^−7 M, cultured mouse vibrissae follicles
Experimental: Effects of the Various Peptides on the Growth of Mouse Vibrissae In Vitro
In order to show the stimulatory effect of the peptides on hair growth, anagen-phase hair follicles of mouse vibrissae are cultured according to the technique described by Philpott (Philpott et al. 1994, Human Hair growth in vitro: a model for the study of hair biology. Journal of dermatological science 7; S55-S72). The growth of the hair follicle shaft was followed for several days (D0 to D4). The results are reported in the table below for the peptides R, S and V described above.

Row | Substance | growth of the hair follicle shaft (D0) | growth of the hair follicle shaft (D1) | growth of the hair follicle shaft (D2) | growth of the hair follicle shaft (D3) | growth of the hair follicle shaft (D4)
1 | Ac-Lys-Gly-His-Lys-NH2 (Ac-KGHK-NH2) [Peptide V] | 0.00 | 0.86 | 1.34 | 1.65 | 1.65
2 | H-Gly-His-Lys-OH [Peptide R] | 0.00 | 0.8 | 1.27 | 1.38 | 1.38
3 | Lipoyl-Lys-Gly-His-Lys-NH2 (Lipoyl-KGHK-NH2) [Peptide S] | 0.00 | 0.77 | 1.47 | 1.72 | 1.86
